Tested on: BAP1 mut mesothelioma PDX model
Experiment: Subcutaneous BAP1 mut mesothelioma PDX model (Example 21)
Assay type: in vivo, mice
Details: Compound 73 100 mg/kg orally once per day, Compound C 50 mg/kg orally every other day, 36 days; alone or combined
Description: A subcutaneous xenograft tumor model of human tumor immunodeficient mice was established by cell inoculation: tumor cells in logarithmic growth phase were collected, counted, resuspended in 1×PBS, and the cell suspension concentration was adjusted to 2.5-5×10^7/mL. The tumor cells were inoculated subcutaneously in the right side of immunodeficient mice with a 1 ml syringe ([…]), 5-10×10^6/0.2 mL/mouse. All animal experiments were strictly in accordance with the specifications for the use and management of experimental animals in GenePharma Co., Ltd. and Suzhou Ascentage Pharma Co., Ltd. The calculation of relevant parameters refers to the Chinese NMPA “Guidelines for Non-Clinical Research Techniques of Cytotoxic Anti-tumor Drugs”.
Animal body weight and tumor size were measured twice weekly during the experiment. The state of the animal and the presence or absence of death were observed every day. The growth of tumor and the effects of treatment on normal behavior of animals were monitored routinely, specifically involving experimental animal activity, feeding and drinking, weight gain or loss, eyes, clothing hair and other abnormalities. The deaths and clinical symptoms observed during the experiment were recorded in the raw data. All operations for administration and measurement of mouse body weight and tumor volume were performed in a clean bench. According to the requirements of the experimental protocol, after the end of the last administration, plasma and tumor tissues were collected, weighed and photographed. The plasma and tumor samples were frozen at −80° C. for ready-to-use.
Tumor volume (TV) is calculated as: TV=a×b^2/2, wherein a and b represent the length and width of the tumor to be measured, respectively.
The relative tumor volume (RTV) is calculated as: RTV=Vt/V1, wherein V1 is the tumor volume at the start of grouping and administration, and Vt is the tumor volume measured on the t day after administration.
The evaluation index of anti-tumor activity is the relative tumor proliferation rate T/C (%), and the calculation formula thereof is: relative tumor proliferation rate T/C (%)=(TRTV/CRTV)×100%, TRTV is the RTV of treatment group, CRTV is the RTV of solvent control group.
Change of body weight (%)=(measured body weight-body weight at the start of grouping)/body weight at the start of grouping×100%.
A dose of drug is considered to be severely toxic if the body weight of mouse is reduced by more than 20% or the number of drug-related deaths exceeds 20%.
In this experiment, subcutaneous BAP1 mut mesothelioma PDX model was established (Lide Biotech) to evaluate the anti-tumor effect of Compound 73 in combination with Compound C. […]

CC(C)N1Cc2cc(C(F)(F)F)ncc2-c2cnc(NCc3c(F)ccc4c3CCO4)n3cnc(c23)C1=O [Compound 73, 12-(((5-fluoro-2,3-dihydrobenzofuran-4-yl)methyl)amino)-4-isopropyl-7-(trifluoromethyl)-4,5-dihydro-3H-2,4,8,11,12a-pentaazabenzo[4,5]cycloocta[1,2,3-cd]inden-3-one]
RTV @ D 36: 5.43
T/C (%) @ D 36: 37.22%
